No end group written: not given here.
What was measured:
[1] = tested on: ImMucin specific T-cell subpopulation; assay: Proliferation of the ImMucin-specific T-cell subpopulation after three stimulations; assay type: cell-based, human; conditions: one out of two experiments, four donors
Source text: Thawed PBLs underwent 1st stimulation with ImMucin pulsed Autologues DC at a ratio of 20:1 and cultured for 7 days in dedicated T cell Medium. T cell medium contained RPMI medium supplemented with 10% FCS, L-Glutamine, Sodium Pyruvate, MEM-EAGLE non-essential amino-acids, HEPES and Gentamycin Sulphate (Bet-Haemek Industries, IL) as well as with 50 IU/ml of recombinant IL-7 (Cytolab IL). For the second stimulation, PBL were transferred to adherent autologues ImMucin-pulsed PBMC and cultured for additional 5 days in T cell Medium. At the end of the 5 days, medium was partial replaced with fresh medium containing 1 ug/ml of ImMucin and 50 IU/ml IL-2 for a third stimulation of 48 h at 37° C. Following the last stimulation ImMucin T cell line was checked for immune activation properties.
(§1) Proliferation analysis was conducted in three different methods. In all three methods, plates were cultured for 3-5 days under visual control and then 0.5 […]Cu/well of 3[H] (Amersham) was added for additional culture of to 18 h at 37° C. In the last step, plates were harvested and the radioactive counts were measured in a □ counter. • 1. DC indirect presentation: In the first method, 100 µl of 2×10^6 thawed PBL were placed in U-shape Bottom 96 well plate (Nunc) with RPMI medium supplemented with 5% H AB serum, L-Glutamine, Sodium Pyruvate, MEM-EAGLE non-essential amino-acids, HEPES and Gentamycin. At the next stage 100 µl of 25×10^4 peptide-pulsed DC were added to each three wells of PBL and underwent proliferation analysis as described above. • 2. PBL direct presentation: In the 2nd method, 100 µl of 2×10^6 PBL were placed in Flat Bottom 96 well plates (Corning) and stimulated with different concentrations (0.05 ug/ml-2 ug/ml) of peptides. In the next step the cells underwent proliferation analysis as described above. • 3. PBMC direct presentation: In third method PNMC were used under similar conditions as described for the second method.
For that purpose, an enriched ImMucin-specific T cell subpopulation was produced via repeated stimulation with ImMucin. The specificity of the subpopulation for ImMucin, as well as to the other VXL epitopes, was examined using proliferation assays, cytokine release assays, FACS analysis in which the percentage and type of cells enriched during the enrichment process was analyzed, and using a CTL assay against selected target cells.
For producing the specific T cell subpopulation PBL were stimulated three times for 7, 5 and 2 days with ImMucin presented via DC and PBMC. Following the 3rd stimulation the cells were evaluated against the different VXL epitopes.

[2] = tested on: blood samples derived from naive donors; assay: Summary: ImMucin specific activation in blood samples of naive donors; assay type: cell-based, human; conditions: out of 14 different blood samples from naive donors
Source text: In summary, out of 14 different blood samples derived from naive donors, in 12 ImMucin specific activation could be observed. It is therefore clear that ImMucin is able to induce antigen specific CD4^+ as well as CD8^+ T cell activation which can lead to effective anti-tumor vaccine properties including lysis, cytokine release and memory in the majority of the population.

[3] = tested on: MDA-MB-486; assay: In vitro cytotoxic assay (CTL) of ImMucin-stimulated HLA-A2.1 positive T-cell clone; assay type: cell-based; conditions: MDA-MB-486 Human Brest Carcinoma, MUC1 ++, ratio 1:50
Description: (§2) Effector cells were ImMucin specific enriched T-Cell clone. Viable lymphocytes (effector cells), were centrifugation, resuspended in RPMI-HEPES medium, and admixed at different ratios with 5×10^3 35S methionine-labeled, tumor cells. CTL assays were performed in U-shaped microtiter wells, at 37° C., 5% CO2 for 5 hours. Cultures were terminated by centrifugation at 1000 rpm for 10 min at […]. A total of 100 µl of the supernatants was mixed with scintillation fluid and measured in a □□ counter (Becton Dickinson Canberra Australia). Percentage of specific lysis was calculated as follows: % lysis=(cpm in experimental well−cpm spontaneous release)/(cpm maximal release−cpm spontaneous release)×100. Spontaneous release was determined by incubation of 100 µl-labeled target cells with 100 µl of medium. Maximal release was determined by lysis of target cells in 100 µl 10% TrytonX-100.
(§3) In order to further evaluate the class II/class I cross presentation as well as the specificity and function of the T-cell clones, their class I restricted lysis potential was analyzed. For this assay the clones were screened for Class I HLA-A2.1 expression and their potential to lyse MUC1 and HLA-A2.1 positive and negative cell-lines was evaluated. […] The results summarized in Table 10 show a MUC1 as well as HLA-A2.1-restricted lysis. A breast tumor cell such as MDA-MB-231 which expresses both MUC1 and HLA-A2.1 was lysed effectively (23%), while another breast tumor cell line MDA-MB-468 which expresses only MUC1 but not the HLA-2.1 was not lysed al all. Other control cell-lines didn't manifest any lysis (see table 10).

[4] = tested on: Molt-4; assay: as above; assay type: cell-based; conditions: Molt-4 Human T cell Leukemia, MUC1 −, ratio 1:50
Description: as §2, §3

[5] = tested on: HT-29; assay: as above; assay type: cell-based; conditions: HT-29 Human Colon Carcinoma, MUC1 −, ratio 1:50
Description: as §2, §3

[6] = tested on: K562; assay: as above; assay type: cell-based; conditions: K562 Human Myalo Leukeima, MUC1 +, ratio 1:50
Description: as §2, §3

[7] = tested on: PBMC; assay: Proliferation, direct presentation of peptide via PBMC (monocytes); assay type: cell-based, human
Description: as §1
b. Direct presentation of the peptides via PBMC i.e. monocytes
(§4) Five experiments were performed according to the protocol described in material and methods with buffy-coat enriched PBLs obtained from six different naive donors (obtained from the Israeli blood bank).

[8] = tested on: PBL; assay: Proliferation of PBL, DC indirect presentation (peptide-pulsed autologous DC); assay type: cell-based, human
Description: Human PBMC were separated from buffy coat samples of naive donors using Ficoll UNI-SEPmaxi tube. Separated cells were suspended in RPMI medium supplemented with 10% FCS, L-Glutamine, Sodium Pyruvate, MEM-EAGLE non-essential amino-acids, HEPES and Gentamycin Sulphate (Bet-Haemek Industries, IL) and cultivated for 4 h at 37° C. in a culture dish (Corning 150 mm×25 mm). Adherent cells were collected and cultured for 7 days in serum free DCCM-1 medium supplemented with L-Glutamine, huIL-4 (1000 IU/ml) (Cytolab IL) and GM-CSF-80 ug/ml (Cytolab IL). On day seven floating cells were collected and loaded with 50 ug/ml of examined peptide for 18 h at 37° C.
as §1
In the first set of experiments, the 21mer ImMucin, its different 9mer epitopes and other control epitopes (Table 3) were evaluated in proliferation assays with the aim of finding their optimal mode of presentation, stimulated dose as well as their peak of activity (time wise).
To evaluate the most efficient method for priming of PBLs with the different peptides, the following methods were compared:
a. In-direct presentation of the peptide via Autologues-pulsed DC
as §4

[9] = optimal dose required for PBL activation, average of 5 experiments, six donors

## MTPGTQSPFFLLLLLTVLTVV [ImMucin]
[1]
  IS (Average): 3.2
  IS (Range): 2.2-4.2
[2]
  blood samples in which ImMucin specific activation could be observed: 12
[3]
  Lysis % (1:50): 0%
[4]
  Lysis % (1:50): 1.1%
[5]
  Lysis % (1:50): 0%
[6]
  Lysis % (1:50): 1.7%
[7]; naive donors, representative of 5 experiments
  PBL Index of stimulation (SI) via PBMC: 2
[7]; [9]
  Optimal dose via PBMC: 0.05 to 1 µg/mL
[7]; visual inspection daily during 5 days, average of 5 experiments
  Peak of Proliferation (Hours) via PBMC: 120 h
[8]; naive donors, CPM sample / CPM control, representative of 5 experiments
  PBL Index of stimulation (SI) via DC: 4
[8]; one out of five experiments, six donors
  IS (SI of the peptides as indicated in Table 7): 4
[8]; [9]
  Optimal dose via DC: 12.5-25 × × 10e6/well
[8]; two donors
  IS (as indicated in Table 12): 2.8
[8]; visual inspection by light microscopy daily during 5 days, average of 5 experiments
  Peak of Proliferation (Hours) via DC: 96 h
